According to ChEMBL document CHEMBL5058649, “Data for DCP probe BAY 1816032” (2022):

Tests used:
[1] = biological target: 5-hydroxytryptamine receptor 2A (Homo sapiens) (UniProt P28223); test: Serotonin (5-Hydroxytryptamine) 5-HT2A Eurofins-Panlabs radioligand binding assay; settings: Compound concentration 10.0 uM
[2] = biological target: Serine/threonine-protein kinase BRSK1 (Homo sapiens) (UniProt Q8TDC3); test: BRSK1 DiscoveRx kinase panel; settings: Compound concentration 1.0 uM
[3] = biological target: Serine/threonine-protein kinase 36 (Homo sapiens) (UniProt Q9NRP7); test: STK36 DiscoveRx kinase panel; settings: Compound concentration 1.0 uM
[4] = biological target: Ephrin type-A receptor 8 (Homo sapiens) (UniProt P29322); test: EPHA8 DiscoveRx kinase panel; settings: Compound concentration 1.0 uM
[5] = biological target: Protein kinase C epsilon type (Homo sapiens) (UniProt Q02156); test: PRKCE DiscoveRx kinase panel; settings: Compound concentration 1.0 uM
[6] = biological target: Phosphatidylinositol 4-phosphate 3-kinase C2 domain-containing subunit beta (Homo sapiens) (UniProt O00750); test: PIK3C2B DiscoveRx kinase panel; settings: Compound concentration 1.0 uM
[7] = biological target: Phosphatidylinositol 4-kinase beta (Homo sapiens) (UniProt Q9UBF8); test: PIK4CB DiscoveRx kinase panel; settings: Compound concentration 1.0 uM
[8] = biological target: Alpha-1A adrenergic receptor (Homo sapiens) (UniProt P35348); settings: Rattus norvegicus; Compound concentration 10.0 uM
[9] = biological target: Tyrosine-protein kinase Yes (Homo sapiens) (UniProt P07947); test: YES DiscoveRx kinase panel; settings: Compound concentration 1.0 uM
MAO-B = MAO-B (Homo sapiens, UniProt P27338); test: Inhibition of Monoamine Oxidase MAO-B at compound concentration of 10.0 uM in the Eurofins-Panlabs enzyme assay (Eurofins_assay_140120); parameters: substrate with concentration 50 uM Kynuramine, incubation time 60 min, incubation temperature 37 C; settings: human recombinant MAO-B expressed in insect Hi5 cells, probe Kynuramine (50 uM), compound concentration 10 uM
[10] = biological target: CDK4/Cyclin D3 (Homo sapiens) (UniProt P11802+P30281); test: CDK4-cyclinD3 DiscoveRx kinase panel; type: protein-complex assay; settings: Compound concentration 1.0 uM
[11] = biological target: Myosin light chain kinase, smooth muscle (Homo sapiens) (UniProt Q15746); test: MYLK DiscoveRx kinase panel; settings: Compound concentration 1.0 uM
[12] = biological target: Sigma non-opioid intracellular receptor 1 (Homo sapiens, UniProt Q99720); test: Inhibition of Sigma 1 at 10 µM in the Eurofins-Panlabs radioligand binding assay (Eurofins_assay_278110); parameters: ligand concentration 8 nM; settings: Compound concentration 10.0 uM
[13] = biological target: Adenosine Transporter (Cavia porcellus) (UniProt H0V4R7+H0UUG1+H0V3Z5); test: Inhibition of Transporter, Adenosine at compound concentration of 10.0 uM in the Eurofins-Panlabs radioligand binding assay (Eurofins_assay_202000); type: protein assay; parameters: ligand concentration 0.5 nM, non-specific ligand with concentration 5 uM Nitrobenzylthioinosine, incubation time 30 min, incubation temperature 25 C; settings: Compound concentration 10.0 uM
[14] = biological target: cGMP-dependent protein kinase 1 (Homo sapiens) (UniProt Q13976); test: PRKG1 DiscoveRx kinase panel; settings: Compound concentration 1.0 uM
[15] = biological target: ATP-sensitive inward rectifier potassium channel 11 (Cricetulus griseus) (UniProt A0A3L7HHE1); test: Inhibition of Potassium Channel [KATP] at 10 µM in the Eurofins-Panlabs radioligand binding assay (Eurofins_assay_265600); settings: Cricetinae; Compound concentration 10.0 uM
[16] = biological target: Cyclin-dependent kinase 15 (Homo sapiens) (UniProt Q96Q40); test: PFTAIRE2 DiscoveRx kinase panel; settings: Compound concentration 1.0 uM
[17] = biological target: Glycogen synthase kinase-3 alpha (Homo sapiens, UniProt P49840); test: GSK3A DiscoveRx kinase panel
[18] = biological target: Cyclin-dependent kinase-like 1 (Homo sapiens) (UniProt Q00532); test: CDKL1 DiscoveRx kinase panel; settings: Compound concentration 1.0 uM
[19] = biological target: Dual specificity protein kinase CLK2 (Homo sapiens) (UniProt P49760); test: CLK2 DiscoveRx kinase panel; settings: Compound concentration 1.0 uM
[20] = biological target: Dual specificity mitogen-activated protein kinase kinase 6 (Homo sapiens) (UniProt P52564); test: MEK6 DiscoveRx kinase panel; settings: Compound concentration 1.0 uM
[21] = biological target: Muscle, skeletal receptor tyrosine-protein kinase (Homo sapiens) (UniProt O15146); test: MUSK DiscoveRx kinase panel; settings: Compound concentration 1.0 uM
[22] = biological target: Receptor-interacting serine/threonine-protein kinase 4 (Homo sapiens) (UniProt P57078); test: RIPK4 DiscoveRx kinase panel; settings: Compound concentration 1.0 uM
[23] = biological target: Dual specificity mitogen-activated protein kinase kinase 2 (Homo sapiens) (UniProt P36507); test: MEK2 DiscoveRx kinase panel; settings: Compound concentration 1.0 uM
[24] = biological target: Serine/threonine-protein kinase DCLK3 (Homo sapiens) (UniProt Q9C098); test: DCAMKL3 DiscoveRx kinase panel; settings: Compound concentration 1.0 uM
[25] = biological target: Interferon-induced, double-stranded RNA-activated protein kinase (Homo sapiens) (UniProt P19525); test: PRKR DiscoveRx kinase panel; settings: Compound concentration 1.0 uM
[26] = biological target: Bone morphogenetic protein receptor type-2 (Homo sapiens) (UniProt Q13873); test: BMPR2 DiscoveRx kinase panel; settings: Compound concentration 1.0 uM
[27] = biological target: Serine/threonine-protein kinase PAK 2 (Homo sapiens) (UniProt Q13177); test: PAK2 DiscoveRx kinase panel; settings: Compound concentration 1.0 uM
[28] = biological target: Ribosomal protein S6 kinase alpha-4 (Homo sapiens) (UniProt O75676); test: RPS6KA4(Kin.Dom.2-C-terminal) DiscoveRx kinase panel; settings: Compound concentration 1.0 uM
[29] = biological target: Glutamate receptor ionotropic, kainate (Rattus norvegicus) (UniProt P22756+Q01812+P42260+P42264+Q63273); test: Inhibition of Glutamate, Kainate at 10 µM in the Eurofins-Panlabs radioligand binding assay (Eurofins_assay_232700); settings: Compound concentration 10.0 uM
[30] = HeLa-MaTu-ADR cell line Proliferation assay; type: functional, Homo sapiens; settings: time 4 day
[31] = biological target: Ribosomal protein S6 kinase alpha-5 (Homo sapiens) (UniProt O75582); test: RPS6KA5(Kin.Dom.1-N-terminal) DiscoveRx kinase panel; settings: Compound concentration 1.0 uM
[32] = biological target: Serine/threonine-protein kinase 33 (Homo sapiens) (UniProt Q9BYT3); test: STK33 DiscoveRx kinase panel; settings: Compound concentration 1.0 uM
[33] = biological target: RAC-gamma serine/threonine-protein kinase (Homo sapiens) (UniProt Q9Y243); test: AKT3 DiscoveRx kinase panel; settings: Compound concentration 1.0 uM
[34] = biological target: Serine/threonine-protein kinase MARK2 (Homo sapiens) (UniProt Q7KZI7); test: MARK2 DiscoveRx kinase panel; settings: Compound concentration 1.0 uM
[35] = biological target: Serine/threonine-protein kinase RIO3 (Homo sapiens) (UniProt O14730); test: RIOK3 DiscoveRx kinase panel; settings: Compound concentration 1.0 uM
[36] = biological target: D(1A) dopamine receptor (Homo sapiens) (UniProt P21728); settings: Compound concentration 10.0 uM
[37] = biological target: Myosin-IIIb (Homo sapiens) (UniProt Q8WXR4); test: MYO3B DiscoveRx kinase panel; settings: Compound concentration 1.0 uM
[38] = biological target: Dual specificity protein kinase TTK (Homo sapiens) (UniProt P33981); test: TTK DiscoveRx kinase panel; settings: Compound concentration 1.0 uM
[39] = biological target: 5-hydroxytryptamine receptor 1A (Homo sapiens, UniProt P08908); test: GPCRScan assay: inhibition of 5-HT1A; parameters: radioligand conc. used [nm] 0.5 – 1.0, parental cells stable CHO
[40] = biological target: Serine/threonine-protein kinase 32B (Homo sapiens) (UniProt Q9NY57); test: YANK2 DiscoveRx kinase panel; settings: Compound concentration 1.0 uM
[41] = biological target: MAP kinase-interacting serine/threonine-protein kinase 2 (Homo sapiens) (UniProt Q9HBH9); test: MKNK2 DiscoveRx kinase panel; settings: Compound concentration 1.0 uM
[42] = biological target: Serine/threonine-protein kinase PLK1 (Homo sapiens) (UniProt P53350); test: PLK1 DiscoveRx kinase panel; settings: Compound concentration 1.0 uM
[43] = biological target: Mitogen-activated protein kinase kinase kinase 1 (Homo sapiens) (UniProt Q13233); test: MAP3K1 DiscoveRx kinase panel; settings: Compound concentration 1.0 uM
[44] = biological target: Platelet-derived growth factor receptor beta (Homo sapiens) (UniProt P09619); test: PDGFRB DiscoveRx kinase panel; settings: Compound concentration 1.0 uM

Serine/threonine-protein kinase BRSK1 (Homo sapiens), sequence (Q8TDC3 whole entry): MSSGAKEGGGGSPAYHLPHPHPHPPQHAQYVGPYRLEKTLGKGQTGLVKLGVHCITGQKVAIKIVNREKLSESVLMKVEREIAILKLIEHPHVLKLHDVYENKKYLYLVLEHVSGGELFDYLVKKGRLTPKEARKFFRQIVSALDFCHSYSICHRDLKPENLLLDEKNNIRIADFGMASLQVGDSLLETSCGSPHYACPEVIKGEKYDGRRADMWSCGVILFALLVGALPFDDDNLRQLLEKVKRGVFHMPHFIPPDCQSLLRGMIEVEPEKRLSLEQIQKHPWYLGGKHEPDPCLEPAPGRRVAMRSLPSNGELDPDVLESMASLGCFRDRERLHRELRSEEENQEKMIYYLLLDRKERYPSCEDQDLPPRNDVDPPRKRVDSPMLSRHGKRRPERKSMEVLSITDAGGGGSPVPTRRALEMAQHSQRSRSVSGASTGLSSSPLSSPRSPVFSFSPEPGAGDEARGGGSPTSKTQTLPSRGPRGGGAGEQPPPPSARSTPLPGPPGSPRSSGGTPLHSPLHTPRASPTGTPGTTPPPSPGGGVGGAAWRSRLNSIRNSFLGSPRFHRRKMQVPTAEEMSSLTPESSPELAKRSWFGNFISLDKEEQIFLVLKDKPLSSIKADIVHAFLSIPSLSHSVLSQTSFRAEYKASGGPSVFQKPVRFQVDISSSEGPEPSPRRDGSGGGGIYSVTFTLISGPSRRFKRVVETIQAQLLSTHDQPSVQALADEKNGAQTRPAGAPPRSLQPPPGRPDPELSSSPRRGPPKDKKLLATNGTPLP
Dual specificity protein kinase CLK2 (Homo sapiens), sequence (P49760 whole entry, looked up): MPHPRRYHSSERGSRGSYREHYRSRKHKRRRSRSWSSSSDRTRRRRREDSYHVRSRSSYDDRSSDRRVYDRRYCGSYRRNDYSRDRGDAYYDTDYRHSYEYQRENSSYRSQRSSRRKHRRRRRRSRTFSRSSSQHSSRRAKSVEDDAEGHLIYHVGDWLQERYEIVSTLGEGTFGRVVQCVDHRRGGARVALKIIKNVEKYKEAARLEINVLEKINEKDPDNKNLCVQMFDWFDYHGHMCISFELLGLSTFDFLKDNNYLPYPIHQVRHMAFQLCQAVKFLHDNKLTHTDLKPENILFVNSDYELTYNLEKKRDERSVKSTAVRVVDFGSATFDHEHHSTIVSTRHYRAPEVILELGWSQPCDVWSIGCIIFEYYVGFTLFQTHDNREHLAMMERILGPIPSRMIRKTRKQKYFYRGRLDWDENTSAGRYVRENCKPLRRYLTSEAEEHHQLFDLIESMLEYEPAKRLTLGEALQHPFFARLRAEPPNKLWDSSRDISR
Phosphatidylinositol 4-kinase beta (Homo sapiens), sequence (Q9UBF8 2-816 limits assumed): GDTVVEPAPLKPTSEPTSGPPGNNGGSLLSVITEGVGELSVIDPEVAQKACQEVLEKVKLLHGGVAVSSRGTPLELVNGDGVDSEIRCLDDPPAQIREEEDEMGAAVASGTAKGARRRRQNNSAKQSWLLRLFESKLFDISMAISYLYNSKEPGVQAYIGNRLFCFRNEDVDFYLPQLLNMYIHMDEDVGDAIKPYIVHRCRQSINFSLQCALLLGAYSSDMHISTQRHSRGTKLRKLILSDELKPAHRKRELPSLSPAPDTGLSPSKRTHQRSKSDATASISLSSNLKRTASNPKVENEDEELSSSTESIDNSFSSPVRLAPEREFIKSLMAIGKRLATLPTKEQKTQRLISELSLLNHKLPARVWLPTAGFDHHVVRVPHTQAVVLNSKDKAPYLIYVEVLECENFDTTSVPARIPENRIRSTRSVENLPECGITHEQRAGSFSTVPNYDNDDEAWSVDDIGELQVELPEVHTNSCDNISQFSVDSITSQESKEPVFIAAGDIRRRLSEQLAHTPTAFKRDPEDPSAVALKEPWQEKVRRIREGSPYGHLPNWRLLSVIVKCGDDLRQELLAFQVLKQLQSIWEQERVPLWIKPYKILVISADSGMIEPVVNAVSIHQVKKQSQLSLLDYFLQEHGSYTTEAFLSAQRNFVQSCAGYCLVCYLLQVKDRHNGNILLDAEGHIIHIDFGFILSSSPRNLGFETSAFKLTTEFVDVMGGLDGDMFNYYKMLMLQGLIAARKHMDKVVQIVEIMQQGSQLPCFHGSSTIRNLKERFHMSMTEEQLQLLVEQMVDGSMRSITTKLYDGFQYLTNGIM
ATP-sensitive inward rectifier potassium channel 11 (Cricetulus griseus), sequence (A0A3L7HHE1 as listed by the source): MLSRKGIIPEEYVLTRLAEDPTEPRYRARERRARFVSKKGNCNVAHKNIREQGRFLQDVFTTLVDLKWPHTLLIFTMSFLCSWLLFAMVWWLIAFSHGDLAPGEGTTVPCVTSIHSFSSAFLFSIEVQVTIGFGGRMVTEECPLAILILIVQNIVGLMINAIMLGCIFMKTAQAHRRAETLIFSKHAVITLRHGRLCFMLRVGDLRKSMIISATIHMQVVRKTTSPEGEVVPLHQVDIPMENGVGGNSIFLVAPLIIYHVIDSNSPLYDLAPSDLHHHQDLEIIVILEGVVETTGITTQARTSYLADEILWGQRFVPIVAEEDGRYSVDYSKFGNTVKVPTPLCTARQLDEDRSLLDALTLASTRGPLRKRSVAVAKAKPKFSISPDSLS
Receptor-interacting serine/threonine-protein kinase 4 (Homo sapiens), sequence (P57078 whole entry): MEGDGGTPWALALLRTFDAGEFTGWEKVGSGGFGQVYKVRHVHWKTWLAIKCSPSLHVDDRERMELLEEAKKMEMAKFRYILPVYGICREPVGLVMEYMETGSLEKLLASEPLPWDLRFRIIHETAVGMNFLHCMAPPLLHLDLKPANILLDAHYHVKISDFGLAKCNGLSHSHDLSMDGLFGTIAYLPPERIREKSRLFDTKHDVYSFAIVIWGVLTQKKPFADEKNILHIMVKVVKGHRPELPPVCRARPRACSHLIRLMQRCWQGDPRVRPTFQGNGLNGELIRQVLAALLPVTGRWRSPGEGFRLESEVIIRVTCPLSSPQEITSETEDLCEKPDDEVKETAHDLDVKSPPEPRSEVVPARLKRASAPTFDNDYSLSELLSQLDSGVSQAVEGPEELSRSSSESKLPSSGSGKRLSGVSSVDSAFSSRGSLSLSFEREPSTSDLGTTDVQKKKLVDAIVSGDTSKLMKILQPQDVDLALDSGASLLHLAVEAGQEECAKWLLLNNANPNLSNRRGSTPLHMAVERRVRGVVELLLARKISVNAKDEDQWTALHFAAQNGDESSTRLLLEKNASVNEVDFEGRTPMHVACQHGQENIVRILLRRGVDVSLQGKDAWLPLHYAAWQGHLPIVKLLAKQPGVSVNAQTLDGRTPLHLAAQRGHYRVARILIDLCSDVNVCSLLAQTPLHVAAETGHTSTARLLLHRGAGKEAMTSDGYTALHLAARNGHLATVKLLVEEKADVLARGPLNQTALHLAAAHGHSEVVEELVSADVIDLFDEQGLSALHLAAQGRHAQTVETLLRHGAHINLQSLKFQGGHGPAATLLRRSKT
Protein kinase C epsilon type (Homo sapiens), sequence (Q02156 whole entry, the tested form may be a part): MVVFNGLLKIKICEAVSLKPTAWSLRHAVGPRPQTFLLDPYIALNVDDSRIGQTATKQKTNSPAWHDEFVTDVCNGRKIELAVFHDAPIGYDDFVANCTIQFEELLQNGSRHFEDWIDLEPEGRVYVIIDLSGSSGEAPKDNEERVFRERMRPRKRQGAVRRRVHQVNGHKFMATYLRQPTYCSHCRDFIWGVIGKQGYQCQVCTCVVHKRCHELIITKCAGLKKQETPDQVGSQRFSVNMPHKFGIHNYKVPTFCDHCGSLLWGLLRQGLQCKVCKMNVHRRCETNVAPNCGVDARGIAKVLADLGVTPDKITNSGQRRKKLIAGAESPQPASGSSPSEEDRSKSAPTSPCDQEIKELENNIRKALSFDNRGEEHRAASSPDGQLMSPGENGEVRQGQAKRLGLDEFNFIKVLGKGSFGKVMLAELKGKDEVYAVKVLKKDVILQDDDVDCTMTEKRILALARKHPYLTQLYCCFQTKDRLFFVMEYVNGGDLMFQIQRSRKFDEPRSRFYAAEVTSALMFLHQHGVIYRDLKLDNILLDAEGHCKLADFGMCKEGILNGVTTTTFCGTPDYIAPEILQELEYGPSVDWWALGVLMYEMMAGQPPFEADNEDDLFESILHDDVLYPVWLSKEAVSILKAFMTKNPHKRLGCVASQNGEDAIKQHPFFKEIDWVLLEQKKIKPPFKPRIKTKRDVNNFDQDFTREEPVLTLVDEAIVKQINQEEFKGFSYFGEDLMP
Dual specificity mitogen-activated protein kinase kinase 2 (Homo sapiens), sequence (P36507 whole entry): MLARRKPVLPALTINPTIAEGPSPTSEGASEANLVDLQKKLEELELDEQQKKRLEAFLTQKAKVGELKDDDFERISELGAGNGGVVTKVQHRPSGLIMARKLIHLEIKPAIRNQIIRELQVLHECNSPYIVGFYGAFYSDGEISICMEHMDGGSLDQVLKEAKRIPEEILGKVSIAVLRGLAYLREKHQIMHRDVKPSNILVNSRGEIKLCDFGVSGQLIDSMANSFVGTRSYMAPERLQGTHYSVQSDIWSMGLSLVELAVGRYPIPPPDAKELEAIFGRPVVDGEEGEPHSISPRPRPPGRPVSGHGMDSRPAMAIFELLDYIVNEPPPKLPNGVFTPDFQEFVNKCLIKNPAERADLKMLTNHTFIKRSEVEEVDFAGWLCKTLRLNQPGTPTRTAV
Serine/threonine-protein kinase 32B (Homo sapiens), sequence (Q9NY57 whole entry): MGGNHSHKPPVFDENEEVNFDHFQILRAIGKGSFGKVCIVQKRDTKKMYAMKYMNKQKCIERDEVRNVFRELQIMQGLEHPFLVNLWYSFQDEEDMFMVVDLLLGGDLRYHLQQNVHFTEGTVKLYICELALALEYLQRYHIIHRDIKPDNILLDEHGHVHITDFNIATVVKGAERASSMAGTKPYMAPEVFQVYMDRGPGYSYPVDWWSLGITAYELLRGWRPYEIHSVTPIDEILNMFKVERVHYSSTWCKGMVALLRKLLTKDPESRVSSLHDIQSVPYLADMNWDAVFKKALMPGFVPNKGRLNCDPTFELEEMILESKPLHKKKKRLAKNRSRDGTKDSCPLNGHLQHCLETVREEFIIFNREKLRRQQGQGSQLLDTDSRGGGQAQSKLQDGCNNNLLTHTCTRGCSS

## COc1cnccc1Nc1nc(-c2nn(Cc3c(F)cc(OCCO)cc3F)c3ccccc23)ncc1OC
[1]
  inhibition: 22%
[2]
  residual activity: 93%
[3]
  residual activity: 68%
[4]
  residual activity: 100%
[5]
  residual activity: 100%
[6]
  residual activity: 100%
[7]
  residual activity: 87%
[8]
  inhibition: 8%
[9]
  residual activity: 100%
MAO-B
  inhibition at 60 min, 10 µM: -15% (not active)
[10]
  residual activity: 100%
[11]
  residual activity: 100%
[12]
  inhibition: -3%
[13]
  inhibition: 71%
[14]
  residual activity: 74%
[15]
  inhibition: 4%
[16]
  residual activity: 96%
[17]
  Kd: > 30 µM
[17]; Compound concentration 1.0 uM
  residual activity: 26%
[18]
  residual activity: 81%
[19]
  residual activity: 100%
[20]
  residual activity: 89%
[21]
  residual activity: 93%
[22]
  residual activity: 70%
[23]
  residual activity: 94%
[24]
  residual activity: 100%
[25]
  residual activity: 88%
[26]
  residual activity: 100%
[27]
  residual activity: 100%
[28]
  residual activity: 100%
[29]
  inhibition: -1%
[30]
  Cell Proliferation IC50: 1.1 µM
[31]
  residual activity: 100%
[32]
  residual activity: 100%
[33]
  residual activity: 100%
[34]
  residual activity: 67%
[35]
  residual activity: 90%
[36]
  inhibition: 5%
[37]
  residual activity: 91%
[38]
  residual activity: 62%
[39]
  Ki: 9.44 µM
[40]
  residual activity: 82%
[41]
  residual activity: 100%
[42]
  residual activity: 98%
[43]
  residual activity: 92%
[44]
  residual activity: 77%
